Measurements published in the NIST ThermoML archive (doi:10.1016/j.fluid.2006.12.011).
± gives the expanded uncertainty stated by the source.

Key:
[1] = Liquid, Vibrating tube method
[2] = xn = mol fraction of the nth substance listed; details: Liquid, Vibrating tube method, x2 = 0

C1CC[C@H]2CCCC[C@H]2C1 [cis-decahydronaphthalene]
mass density [kg/m3], [1]
Details | 303.15 K | 323.15 K | 343.15 K
100 kPa | 888.5 ± 1.2 | 873.2 ± 1.2 | 857.8 ± 1.2
5000 kPa | 891.4 ± 1.2 | 876.5 ± 1.2 | 861.5 ± 1.2
10000 kPa | 894.4 ± 1.2 | 879.8 ± 1.2 | 865.1 ± 1.2
15000 kPa | 897.3 ± 1.2 | 883 ± 1.2 | 868.6 ± 1.2
20000 kPa | 899.9 ± 1.2 | 886 ± 1.2 | 871.9 ± 1.2
25000 kPa | 902.8 ± 1.3 | 889 ± 1.3 | 875.1 ± 1.3
30000 kPa | 905.5 ± 1.3 | 891.8 ± 1.3 | 878.3 ± 1.3
35000 kPa | 908 ± 1.3 | 894.6 ± 1.3 | 881.2 ± 1.3
40000 kPa | 910.6 ± 1.3 | 897.3 ± 1.3 | 884.1 ± 1.3
45000 kPa | 913 ± 1.3 | 899.9 ± 1.3 | 887 ± 1.3
50000 kPa | 915.3 ± 1.3 | 902.4 ± 1.3 | 889.7 ± 1.3
55000 kPa | 917.6 ± 1.3 | 904.8 ± 1.3 | 892.3 ± 1.3
60000 kPa | 919.9 ± 1.3 | 907.3 ± 1.3 | 894.9 ± 1.3
65000 kPa | 922.1 ± 1.3 | 909.6 ± 1.3 | 897.4 ± 1.3

C1CC[C@H]2CCCC[C@@H]2C1 [trans-decahydronaphthalene] + C1CC[C@H]2CCCC[C@H]2C1
mass density [kg/m3], [2]
Details | 303.15 K | 323.15 K | 343.15 K
100 kPa | 862.1 ± 1 | 847.1 ± 1 | 832 ± 1
5000 kPa | 865.4 ± 1 | 850.9 ± 1 | 836.2 ± 1
10000 kPa | 868.7 ± 1 | 854.4 ± 1 | 840.1 ± 1
15000 kPa | 871.6 ± 1 | 857.8 ± 1 | 843.9 ± 1
20000 kPa | 874.6 ± 1 | 861 ± 1 | 847.4 ± 1.1
25000 kPa | 877.6 ± 1.1 | 864.1 ± 1.1 | 850.8 ± 1.1
30000 kPa | 880.3 ± 1.1 | 867.1 ± 1.1 | 854.1 ± 1.1
35000 kPa | 882.9 ± 1.1 | 870 ± 1.1 | 857.2 ± 1.1
40000 kPa | 885.6 ± 1.1 | 872.8 ± 1.1 | 860.3 ± 1.1
45000 kPa | 888.2 ± 1.1 | 875.6 ± 1.1 | 863.2 ± 1.1
50000 kPa | 890.6 ± 1.1 | 878.3 ± 1.1 | 866.1 ± 1.1
55000 kPa | 893 ± 1.1 | 880.8 ± 1.1 | 868.8 ± 1.1
60000 kPa | 895.3 ± 1.1 | 883.4 ± 1.1 | 871.5 ± 1.1
65000 kPa | 897.6 ± 1.1 | 885.8 ± 1.1 | 874.2 ± 1.1

C1CC[C@H]2CCCC[C@@H]2C1 [trans-decahydronaphthalene]
mass density [kg/m3], [1]
Details | 303.15 K | 323.15 K | 343.15 K
100 kPa | 862.1 ± 1 | 847.1 ± 1 | 832 ± 1
5000 kPa | 865.4 ± 1 | 850.9 ± 1 | 836.2 ± 1
10000 kPa | 868.7 ± 1 | 854.4 ± 1 | 840.1 ± 1
15000 kPa | 871.6 ± 1 | 857.8 ± 1 | 843.9 ± 1
20000 kPa | 874.6 ± 1 | 861 ± 1 | 847.4 ± 1.1
25000 kPa | 877.6 ± 1.1 | 864.1 ± 1.1 | 850.8 ± 1.1
30000 kPa | 880.3 ± 1.1 | 867.1 ± 1.1 | 854.1 ± 1.1
35000 kPa | 882.9 ± 1.1 | 870 ± 1.1 | 857.2 ± 1.1
40000 kPa | 885.6 ± 1.1 | 872.8 ± 1.1 | 860.3 ± 1.1
45000 kPa | 888.2 ± 1.1 | 875.6 ± 1.1 | 863.2 ± 1.1
50000 kPa | 890.6 ± 1.1 | 878.3 ± 1.1 | 866.1 ± 1.1
55000 kPa | 893 ± 1.1 | 880.8 ± 1.1 | 868.8 ± 1.1
60000 kPa | 895.3 ± 1.1 | 883.4 ± 1.1 | 871.5 ± 1.1
65000 kPa | 897.6 ± 1.1 | 885.8 ± 1.1 | 874.2 ± 1.1
